Assay results taken from ChEMBL document CHEMBL1130917, “The design, synthesis, and structure-activity relationships of a series of macrocyclic MMP inhibitors” (Bioorg Med Chem Lett, 1998).

Experiments:
Interstitial collagenase = biological target: T1, Interstitial collagenase (Homo sapiens, UniProt P03956); assay: Inhibition of fibroblast collagenase (MMP-1)
T1 sequence (P03956 whole entry): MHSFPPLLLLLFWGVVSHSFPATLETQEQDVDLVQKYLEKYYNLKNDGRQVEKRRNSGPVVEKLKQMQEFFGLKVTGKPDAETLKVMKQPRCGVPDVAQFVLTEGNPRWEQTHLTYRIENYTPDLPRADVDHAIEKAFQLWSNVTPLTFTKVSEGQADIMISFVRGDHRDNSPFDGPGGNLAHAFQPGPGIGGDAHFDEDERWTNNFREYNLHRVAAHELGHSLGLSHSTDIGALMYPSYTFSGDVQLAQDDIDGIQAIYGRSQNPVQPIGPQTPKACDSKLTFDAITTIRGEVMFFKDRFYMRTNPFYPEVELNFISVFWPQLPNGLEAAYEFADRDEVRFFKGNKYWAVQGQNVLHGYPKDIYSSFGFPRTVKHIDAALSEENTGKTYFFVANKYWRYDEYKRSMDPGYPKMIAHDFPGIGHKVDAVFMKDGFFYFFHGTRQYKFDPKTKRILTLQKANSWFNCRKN

Matrilysin = biological target: T2, Matrilysin (Homo sapiens, UniProt P09237); assay: Inhibition of fibroblast matrilysin (MMP-7)
T2 sequence (P09237 whole entry): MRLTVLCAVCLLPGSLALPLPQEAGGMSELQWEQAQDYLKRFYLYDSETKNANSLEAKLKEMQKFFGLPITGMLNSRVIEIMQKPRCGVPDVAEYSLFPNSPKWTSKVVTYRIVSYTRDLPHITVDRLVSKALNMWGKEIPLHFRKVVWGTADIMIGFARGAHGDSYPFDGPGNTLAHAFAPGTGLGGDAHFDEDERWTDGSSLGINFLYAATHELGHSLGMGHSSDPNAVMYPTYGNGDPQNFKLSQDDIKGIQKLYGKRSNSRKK

Stromelysin-1 = Stromelysin-1 (Homo sapiens, UniProt P08254); assay: Inhibition of fibroblast stromelysin (MMP-3)
[1] = biological target: 72 kDa type IV collagenase (Homo sapiens, UniProt P08253); assay: Inhibition of fibroblast gelatinase A (MMP-2)
72 kDa type IV collagenase, sequence (P08253 whole entry): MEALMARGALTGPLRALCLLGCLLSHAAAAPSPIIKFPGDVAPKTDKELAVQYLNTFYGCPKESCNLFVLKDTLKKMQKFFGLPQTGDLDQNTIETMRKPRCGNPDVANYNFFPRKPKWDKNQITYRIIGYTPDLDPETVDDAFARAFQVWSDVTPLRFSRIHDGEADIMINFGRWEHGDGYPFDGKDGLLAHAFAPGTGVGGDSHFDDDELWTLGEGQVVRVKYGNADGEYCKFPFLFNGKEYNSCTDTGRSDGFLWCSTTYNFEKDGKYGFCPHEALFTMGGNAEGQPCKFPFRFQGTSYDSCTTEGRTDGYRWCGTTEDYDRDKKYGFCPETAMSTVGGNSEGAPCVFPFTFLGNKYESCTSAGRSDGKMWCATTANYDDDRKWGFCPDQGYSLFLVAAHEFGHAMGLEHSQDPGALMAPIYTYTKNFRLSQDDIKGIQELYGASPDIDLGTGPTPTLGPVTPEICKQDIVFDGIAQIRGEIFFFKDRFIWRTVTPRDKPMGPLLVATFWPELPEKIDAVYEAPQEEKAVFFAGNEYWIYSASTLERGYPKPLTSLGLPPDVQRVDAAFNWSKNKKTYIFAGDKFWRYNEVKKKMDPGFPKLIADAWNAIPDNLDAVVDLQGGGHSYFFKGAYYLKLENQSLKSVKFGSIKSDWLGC

Stromelysin-1, sequence (P08254 whole entry): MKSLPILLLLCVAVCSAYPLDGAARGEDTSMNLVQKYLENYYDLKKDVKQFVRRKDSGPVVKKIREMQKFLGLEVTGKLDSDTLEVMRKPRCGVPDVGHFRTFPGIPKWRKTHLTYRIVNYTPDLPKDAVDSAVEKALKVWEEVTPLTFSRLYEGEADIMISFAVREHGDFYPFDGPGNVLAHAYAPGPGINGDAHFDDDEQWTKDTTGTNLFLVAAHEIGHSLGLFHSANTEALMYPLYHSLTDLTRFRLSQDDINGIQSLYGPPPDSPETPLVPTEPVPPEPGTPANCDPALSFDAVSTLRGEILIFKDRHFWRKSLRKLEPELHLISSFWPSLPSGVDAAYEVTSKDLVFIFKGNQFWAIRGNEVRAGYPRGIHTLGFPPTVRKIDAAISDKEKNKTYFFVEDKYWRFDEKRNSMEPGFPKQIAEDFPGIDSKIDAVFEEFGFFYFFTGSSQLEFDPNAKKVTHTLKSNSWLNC

Row | Compound | IC50 (Interstitial collagenase) | IC50 (Matrilysin) | IC50 (Stromelysin-1) | IC50 [1]
1 | CNC(=O)[C@@H]1Cc2ccc(cc2)OCCCCC[C@H](C(=O)O)[C@@H](CC(C)C)C(=O)N1 | 1400 nM | 110 nM | 75 nM | 1400 nM
2 | CNC(=O)[C@@H]1Cc2ccc(cc2)OCCCC[C@H](C(=O)NO)[C@@H](CCCCOCc2ccccc2)C(=O)N1 | 210 nM | 180 nM | 1.8 nM | 0.3 nM
3 | CC(C)C[C@H]1C(=O)N[C@H](C(=O)NCCc2ccc(S(N)(=O)=O)cc2)Cc2ccc(cc2)OCCCC[C@@H]1C(=O)NO | 3 nM | 25 nM |  | 1.9 nM
4 | CCCc1ccc(CC[C@H]2C(=O)N[C@H](C(=O)NC)Cc3ccc(cc3)OCCCC[C@@H]2C(=O)NO)cc1 | 54 nM | 5.9 nM |  | 0.1 nM
5 | CC(C)C[C@H]1C(=O)N[C@H](C(=O)NCCN(C)C)Cc2ccc(cc2)OCCCC[C@@H]1C(=O)NO | 6.6 nM | 4.2 nM | 12 nM | 6.5 nM
6 | CNC(=O)[C@@H]1Cc2ccc(cc2)OCCCC[C@H](C(=O)NO)[C@@H](CC(C)C)C(=O)N1 | 1.8 nM | 1.6 nM |  | 2.2 nM
7 | CSCCNC(=O)[C@@H]1Cc2ccc(cc2)OCCCC[C@H](C(=O)NO)[C@@H](CC(C)C)C(=O)N1 | 2.7 nM | 2.5 nM | 4.2 nM | 3.8 nM
8 | CNC(=O)[C@@H]1Cc2ccc(cc2)OCCCC[C@H](C(=O)NO)[C@@H](CCCc2ccc(C)cc2)C(=O)N1 | 6.1 nM | 2.8 nM | 9.1 nM | 0.8 nM
9 | CNC(=O)[C@@H]1Cc2ccc(cc2)OCCCCC[C@H](C(=O)NO)[C@@H](CC(C)C)C(=O)N1 | 2.1 nM | 2.6 nM |  | 2.3 nM
10 | CC(C)C[C@H]1C(=O)N[C@H](C(=O)Nc2ccccn2)Cc2ccc(cc2)OCCCC[C@@H]1C(=O)NO | 4.6 nM | 1.6 nM |  | 2.1 nM
11 | CNC(=O)[C@@H]1Cc2ccc(cc2)OCCC[C@H](C(=O)O)[C@@H](CC(C)C)C(=O)N1 | > 10000 nM | 900 nM |  | 14000 nM
12 | CNC(=O)[C@@H]1Cc2ccc(cc2)OCCCC[C@@H](C(=O)NO)[C@@H](CC(C)C)C(=O)N1 | 110 nM | 440 nM |  | 230 nM
13 | CNC(=O)[C@@H]1Cc2ccc(cc2)OCCC[C@H](C(=O)NO)[C@@H](CC(C)C)C(=O)N1 | 3 nM | 3 nM |  | 2.6 nM
14 | CNC(=O)[C@@H]1Cc2ccc(cc2)OCCCCCC[C@H](C(=O)NO)[C@@H](CC(C)C)C(=O)N1 | 2.2 nM | 5.7 nM |  | 5.9 nM
